Test results: patent US12228568B2, “Redox-labile fluorescent probes and their surface immobilization methods for the detection of metabolites” (The Regents of the University of California, priority 2018, dated 2025)
Where a SMILES comes first, the peptide text is derived from it. The star is where a group is joined. Biotin = O=C1N[C@H]2[C@H](CS[C@H]2CCCCC(=O)*)N1; X1 = O=C(c1c(O)ccc2c1oc1cc(=O)ccc-1[n+]2[O-])*

How the values were obtained:
[1] = test system: GBM39 cells; experiment: SCBC single cell metabolic/proteomic measurements; type: cell-based, human; settings: for glucose uptake / lactate production: erlotinib 1 μM 24 h or oligomycin A 0.1 μM 3 h vs DMSO
Description: We then sought to adapt the lactate assay for single cell level quantitation. The surface-based lactate assay was incorporated onto the SCBC platform, which consisted of a two-layer elastomer microfluidics device coupled to a DNA barcoded glass slide.^[5, 7] The device contained 384 programmable microchambers where cells were loaded and lysed for analysis. Each microchamber was equipped with a set of DNA barcode stripes, which served as a scaffold for multiplex measurements (FIG. 18). We quantified glucose uptake, lactate production and a panel of signaling proteins from GBM39 single cells. GBM39 is a human glioblastoma cell line that harbors a mutated form of the epidermal growth factor receptor (EGFR), which drives cell proliferation. Cells were treated with 1 μM of erlotinib (EGFR inhibitor), 0.1 μM of oligomycin A (ATPase inhibitor) or DMSO (control) before analysis.
GBM 39 primary neurospheres were provided by Prof. C. David James (UCSF, San Francisco, U.S.A.) and HK301 cells were provided by Prof. Harley Kornblum (UCLA, Los Angeles, U.S.A). Cells were cultured in Dulbecco's Modified Eagle Media Nutrient Mix F-12 (DMEM/F12, Thermo) supplemented with B27 (Invitrogen), Glutamax (Thermo), heparin (1 μg/mL, Sigma), Epidermal Growth Factor (EGF, […], Sigma), Fibroblast Growth Factor (FGF, 20 ng/mL, Sigma) and 100 U/mL of penicillin and streptomycin (Thermo) in a humidified 5% CO2 (v/v) incubator at 37° C. […] For the erlotinib group, the GBM 39 cells were treated for 24 h while for the oligomycin group, the cells were treated for 3 h. Afterwards, the treated cells were processed for tests.
For SCBC measurements, the as-prepared single cells were resuspended in warm media with 10 μg/mL of Gluc-Bio at 1 M cells/mL. After incubated at 37° C. for 30 min and washed with cold PBS for 3 times, the collected cell pellet was resuspended in serum-free, biotin-free media which contained 25 U/mL lactate dehydrogenase (LDH) and 25 U/mL diaphorase. The concentration of the as-prepared single cell suspension was 1 M cells/mL.
The single cell barcode chips (SCBC) were fabricated according to well-established procedures. DNA-encoded antibody library (DEAL) was grafted onto the surface through DNA hybridization to afford capture antibody arrays. The DNA-APRz conjugate can also be incorporated onto the surface barcode through the same procedure. […] 2) the lysis buffer was prepared to contain 2 mM of NAD^+.
The SCBC readouts from the microchambers with single cells were collected to form a data table. Each row of the table corresponds to a measurement of a panel of functional proteins from a single cell and each column contains digitized fluorescence intensities that provide readout of the levels of each of the assayed proteins. […]. Protein-protein Spearman's rank correlation coefficients were calculated. Bonferroni corrected p-value was used to define the statistical significance level for the entire panel and only those significant correlations were shown in the networks. Analyte-analyte correlation networks were generated by running the calculation through all the analyte pairs in panel.

[2] = Interference of intracellular reducing agents with APRz detection; type: biochemical; settings: Glutamine 6 mM; Glucose 6 mM; Ascorbate 100 nM; Glutathione 6 mM; APRz 8 µM in PBS
Description: FIG. 15. Comparison of the reaction kinetics using different reducing agents.
A potential concern of employing the enzymatic mechanism for lactate quantitation was the specificity of the method. The complex intracellular contents always pose strong challenges on such redox-based methods. […] In order to evaluate the combined interference from all intracellular components, we further performed validation using GBM39 cell lysates.

[3] = Stability of modified resazurin probes; type: physicochemical; settings: solution phase, 8 μM in PBS
Procedure: FIG. 7. Synthesis of the extended CRz bearing an aliphatic carboxyl group (CPRz). This carboxyl group could be readily converted to an NHS ester using standard coupling procedures. However, the ss-DNA-CPRz was not stable, and went through spontaneous self-reduction even at −20° C.
FIG. 10. Stability of Biotin-modified CRz (BRz) in solution phase. 8 μM in PBS. At 6 hrs, all the BPRz was reduced through adding 10 units of Diaphorase and 1 mM of NADH in PBS.
FIG. 11. Stability of the APRz probe (8 μM in PBS). The “reduced” signal was obtained through adding 10 units of Diaphorase and 1 mM of NADH to the APRz solution followed by a 1 hour incubation.
In order to be adapted to the SCBC platform, the probe immobilization process should be compatible with the single-stand DNA hybridization process.^[5] However, the N-oxide group on CRz confers strong redox lability. Consequently, the attempt of conjugating the amine-modified CRz to a single strand DNA (ssDNA) was unsuccessful.

[4] = Surface-based lactate assay on immobilized resazurin probes (coupled LDH/diaphorase reactions); type: biochemical; settings: surface-immobilized probe; sodium lactate, NAD+, LDH and diaphorase
Description: We then evaluated the BRz and APRz probes for their performance in lactate detection experiments. BRz was immobilized onto the surface through ssDNA-streptavidin conjugates. Similarly, dibenzocyclooctyne-modified ssDNA enabled surface grafting of APRz molecules (FIG. 3, panel a).^[10] The resazurin-modified surfaces were exposed to a solution containing a mixture of sodium lactate, nicotinamide adenine dinucleotide (NAD+), lactate dehydrogenase (LDH) and diaphorase. In this case, the enzyme reaction cascade shown in FIG. 1, panel a translates the lactate quantity to fluorescence readouts.
A 16-well PDMS slab was placed onto a microscope glass slide, on which single strand DNA oligomers are patterned in 20 μm stripes. The volume of each well is 50 μL and it is equipped with at least eight sets of DNA barcode strips. […]
Subsequently, each well was washed with PBST for three times. At this stage, the APRz probe was immobilized to the surface and ready to use.
To obtain the standard curve for lactate quantification, 20 μL of NAD+ solution (1 mM in PBST), 1 μL of LDH solution (1 kU in ammonium sulfate buffer), 1 μL of diaphorase solution (1 kU/mL in PBS) and 20 μL of lactate solution (various concentrations in PBST) was added to each well and the device was incubated at room temperature for one hour. […] The surface fluorescence intensity was then measured by a microscanner. […]

Which results are given for `C#Cc1cccc(Nc2ncnc3cc(OCCOC)c(OCCOC)cc23)c1` [erlotinib]?
glucose uptake [1]: dramatically decreased; lactate production [1]: dramatically decreased; phosphorylation levels on EGFR as well as downstream signaling proteins ([1]; erlotinib 1 μM 24 h vs DMSO): significant down regulation

For `O=C1O[C@H]([C@@H](O)CO)C(O)=C1O` [ascorbic acid], which “fluorescence increase within the assay duration” value [2] is on record?
Its value is “insignificant fluorescence increase”.

And the “reaction kinetics of APRz reduction by reducing agent” value [2]?
The value was “very slow reaction kinetics”.

Which results are given for `NCCCC[C@H](NC(=O)CNC(=O)CCCC[C@@H]1SC[C@@H]2NC(=O)N[C@@H]21)C(=O)NCC(=O)N[C@@H](CCCCN)C(=O)NCC(=O)N[C@@H](CCCCN)C(=O)NCC(=O)N[C@@H](CCCCNC(=O)c1c(O)ccc2c1oc1cc(=O)ccc-1[n+]2[O-])C(=O)NCC(N)=O` [BRz] (Biotin-GKGKGKGK(X1)G-NH2)?
stability of probe [3]: superior stability; increase of fluorescence intensity after lactate conversion [4]: unsatisfactory fluorescence increase

Which “fluorescence increase within the assay duration” value [2] does the source give for `N[C@@H](CCC(=O)N[C@@H](CS)C(=O)NCC(=O)O)C(=O)O` [glutathione] here?
The value was “insignificant fluorescence increase”.

And the “reaction kinetics of APRz reduction by reducing agent” value [2]?
Its value is “very slow reaction kinetics”.

With `CC[C@H]1/C=C/C=C/C[C@@H](C)[C@H](O)[C@@](C)(O)C(=O)[C@@H](C)[C@H](O)[C@@H](C)C(=O)[C@@H](C)[C@H](O)[C@@H](C)/C=C/C(=O)O[C@@H]2[C@H](C)[C@H](CC1)O[C@]1(CC[C@H](C)[C@H](C[C@@H](C)O)O1)[C@H]2C` [oligomycin, oligomycin A] as the compound, how does the glucose uptake [1] read?
The glucose uptake was “slightly higher”.

And the lactate production [1]?
The lactate production was “significantly increased”.

What about the “phosphoproteins downstream of the EGFR signaling pathway” value ([1]; oligomycin A 0.1 μM 3 h vs DMSO) of the same compound?
The value was “suppress”.
